{
  "source": "patent US12029682B2",
  "about": "“Spray ejector mechanisms and devices providing charge isolation and controllable droplet charge, and low dosage volume ophthalmic administration” (EYENOVIA, INC., priority 2012, dated 2024)",
  "assay": "Pharmacokinetic study: acid of latanoprost in aqueous humor (AH) by HPLC",
  "type": "in vivo, beagle dog",
  "settings": "delivered by the spray ejector device",
  "procedure": "Eight normal laboratory beagles were chosen for this study. Conditions for inclusion included normal overall health and normal ophthalmic state as determined by gross eye exam by a boarded veterinary ophthalmologist. Pre- and post-dosing mass deposition calibrations of the spray device were consistently within 10% of the intended dose of 9 μl. A 9.0 μl dose of a commercially available prostaglandin pro-drug, latanoprost, was instilled topically in two eyes of each of eight normotensive beagle dogs using the spray ejector device. Levels of the acid of latanoprost were measured in aqueous humor (AH) obtained by aqueocentesis over a 7-hour period each day for 5 days. This protocol was repeated for latanoprost 0.005% delivered by eyedropper (average dose 26 μl).\nAll dogs received a washout and acclimation period of two weeks. In Week 1, all animals were assigned to a group, with two animals each in Groups 1, 2, 4, and 7. […] IOP and PD were measured while the topical anesthetic took effect. […]\nWeek 3 followed the Week 1 protocol, with the substitution of eyedropper-delivered 0.005% latanoprost at an average dose of 26 μl at time 0. […] All AH samples were frozen to −80° C., stored overnight on dry ice, and then analyzed for the acid of latanoprost using a latanoprost-specific HPLC methodology. […]",
  "data": [
    {"smiles": "CC(C)OC(=O)CCC/C=C\\C[C@@H]1[C@@H](CC[C@@H](O)CCc2ccccc2)[C@H](O)C[C@@H]1O", "note": "[latanoprost]", "values": [
      {"measurement": "absorption rate vs eyedropper-delivered drug in higher doses", "result": "three-fold"}
    ]}
  ]
}
